# Results published in article PMC5303205, “Comparative studies on the multi-component pharmacokinetics of Aristolochiae Fructus and honey-fried Aristolochiae Fructus extracts after oral administration in rats” (BMC Complementary and Alternative Medicine, 2017).
# Where two headings read alike, the source gives them in different places.
# Key:
# [1] = Stability of AAs in rat plasma (QC samples, HPLC-MS/MS); assay type: in vitro ADME; settings: n = 5; for Short-term stability (RSD/%): fresh rat plasma at room temperature for 24 h before sample preparation; for Post-preparation stability (RSD/%): prepared rat plasma samples at room temperature for 24 h; for Long-term stability (RSD/%): rat plasma stored at –20 °C for 14 days; for Freeze-thaw stability (RSD/%): rat plasma, three freeze-thaw cycles (–20 °C 24 h, thawed at room temperature)
# Experimental: The QC samples were assayed under several different conditions to evaluate the stability of AAs in rat plasma. The freeze-thaw stability of the analyte was determined over three freeze-thaw cycles. In each freeze-thaw cycle, the samples were frozen and stored at –20 °C for 24 h, then thawed at room temperature. To evaluate the long-term stability of AAs, the plasma samples were stored at –20 °C for 14 days. For the short-term stability, fresh plasma samples were kept at room temperature for 24 h before the sample preparation. After keeping the samples at room temperature for 24 h, post-preparation stability was tested. Stability was evaluated by comparing the mean concentration of the stored samples with the mean concentration of those prepared freshly. The stability data were acceptable when the bias was within ±15% of the actual value.
# [2] = Multi-component pharmacokinetics of AAs in rats after oral administration of AF and HAF extracts (HPLC-MS/MS of plasma); set-up: species or system Sprague–Dawley (SD) rats; settings: Sprague-Dawley, rat, in vivo
# Experimental: An aliquot (100 μl) of rat plasma was spiked with 10.0 μL IS, and vortexed with 300 μL acetic ether for 10 s before the supernatant was transferred into centrifuge tube. The extraction was repeated with 200 μL acetic ether. The combined organic layer was evaporated to dryness under a gentle stream of nitrogen at RT. The residue was resolved in 100 μL methanol and centrifuged at 15,800 × g for 10 min. The supernatant was used for HPLC-MS/MS analysis.
# Chromatographic separation was performed by an Acquity C18 column (4.6 × 100 mm,3.5 μm) (Agilent Technologies, USA). The mobile phase was composed of water (containing 10 mM ammonium formate and formic acid, pH 3.0) (solvent A) and ACN (solvent B). The gradient profile of B was: 0–10 min, 35–38%; 10–11 min, 38– 60%; 11–17 min, 60–35%B; 17–18 min, 35%. The flow rate was kept at 0.5 mL/min. The column oven was set at 30 °C and the injection volume was 10 μL.
# The mass spectrometer was operated in the positive ion electrospray mode with multiple reaction monitoring (MRM). The optimal MS parameters were set at the following parameters: a desolvation gas temperature of 450 °C, desolvation gas flow of 10 L/min, a nebulizer gas of 40 psi and a capillary voltage of 4000 V. The mass spectrometry conditions of AA I, AA II, AA C, AA D, 7-OH AA I and IS are summarized in Additional file 1: Table S1.
# The rats were randomly divided into 6 groups (low, middle and high doses of AF and HAF; n = 6). After a week of acclimation, the animals were fasted for 12 h with free access to water. Then, AF and HAF extracts were administered to the rats. The extracts were suspended in 0.5% CMC–Na solution, and the oral doses (according to AA I in the extracts) were 3.0 mg/kg, 8.0 mg/kg and 15.0 mg/kg, respectively.
# Blood samples were collected from the ocular vein using dried heparinized tubes at 0, 0.083, 0.17, 0.33, 0.50, 0.67, 0.83, 1, 2, 4, 6, 8, 10, 12 and 24 h from the start. The animals received fluid replacement (sterile isotonic saline) after every two samplings since the fifth collecting. The samples were then immediately centrifuged at 3100 × g for 10 min. The plasma obtained was frozen and stored at –20 °C until analysis.
# All statistical analyses were performed using the SPSS 11.0 software (Chicago, USA). P values <0.05 were considered statistically significant. Pharmacokinetic analysis was performed using the proprietary DAS 3.0 software (Mathematical Pharmacology Professional Committee of China, Shanghai, China).
# After the oral administration of AF and HAF extracts, rat plasma samples were prepared and analyzed as described above. Five main AAs can be detected in rat blood with the proposed HPLC-MS/MS method. The mean pharmacokinetic parameters of five AAs in AF and HAF are summarized in Tables 4, 5 and Additional files 5, 6, 7: Tables S4-S6. The maximum concentration (C max) was the experimentally-observed value. The other pharmacokinetic parameters of the five analytes were fitted by DAS 3.0 software.
# [3] = high QC conc ng/mL: AA I 1830, AA II 3200, AA C 2980, AA D 3680, 7-OH AA I 3280
# [4] = low QC conc ng/mL: AA I 1.83, AA II 8.00, AA C 186.3, AA D 36.8, 7-OH AA I 82.0
# [5] = middle QC conc ng/mL: AA I 457.5, AA II 400, AA C 372.5, AA D 460, 7-OH AA I 410
# [6] = 3 mg/kg, AF extract, low dose (3.0 mg/kg as AA I), analyte dose mg/kg: AA I 3.0, AA II 0.21, AA C 1.42, AA D 1.60, 7-OH AA I 2.33, n = 6
# [7] = 3 mg/kg, HAF extract, low dose (3.0 mg/kg as AA I), analyte dose mg/kg: AA I 3.0, AA II 0.26, AA C 1.53, AA D 1.51, 7-OH AA I 2.48, n = 6
# [8] = 8 mg/kg, AF extract, mid dose (8.0 mg/kg as AA I), analyte dose mg/kg: AA I 8.0, AA II 0.56, AA C 3.78, AA D 4.26, 7-OH AA I 6.22, n = 6
# [9] = 8 mg/kg, HAF extract, mid dose (8.0 mg/kg as AA I), analyte dose mg/kg: AA I 8.0, AA II 0.69, AA C 4.09, AA D 4.03, 7-OH AA I 6.62, n = 6
# [10] = 15 mg/kg, AF extract, high dose (15.0 mg/kg as AA I), analyte dose mg/kg: AA I 15.0, AA II 1.05, AA C 7.09, AA D 8.00, 7-OH AA I 11.66, n = 6
# [11] = 15 mg/kg, HAF extract, high dose (15.0 mg/kg as AA I), analyte dose mg/kg: AA I 15.0, AA II 1.29, AA C 7.66, AA D 7.56, 7-OH AA I 12.41, n = 6
structure (smiles),measurement,setting,value
COc1cc(O)cc2c1cc([N+](=O)[O-])c1c(C(=O)O)cc3c(c12)OCO3 [AA D],Short-term stability (RSD/%),[1]; [3],8.6%
same,Short-term stability (RSD/%),[1]; [4],5.0%
same,Short-term stability (RSD/%),[1]; [5],11.7%
same,Post-preparation stability (RSD/%),[1]; [3],2.8%
same,Post-preparation stability (RSD/%),[1]; [4],4.5%
same,Post-preparation stability (RSD/%),[1]; [5],3.1%
same,Long-term stability (RSD/%),[1]; [3],12.7%
same,Long-term stability (RSD/%),[1]; [4],5.2%
same,Long-term stability (RSD/%),[1]; [5],2.5%
same,Freeze-thaw stability (RSD/%),[1]; [3],14.3%
same,Freeze-thaw stability (RSD/%),[1]; [4],4.8%
same,Freeze-thaw stability (RSD/%),[1]; [5],8.4%
same,AUC(0-inf),[2]; [6],194 ng·h/mL
same,Cmax,[2]; [6],78.5 ng/mL
same,Tmax,[2]; [6],0.56 h
same,CL/F,"[2]; 3 mg/kg, AF extract, low dose (3.0 mg/kg as AA I), analyte dose mg/kg: AA I 3.0, AA II 0.21, AA C 1.42, AA D 1.60, 7-OH AA I 2.33, n = 6, read-out: CLz/F (converted)",168 mL/min/kg
same,Vd/F,"[2]; 3 mg/kg, AF extract, low dose (3.0 mg/kg as AA I), analyte dose mg/kg: AA I 3.0, AA II 0.21, AA C 1.42, AA D 1.60, 7-OH AA I 2.33, n = 6, read-out: Vz/F",35.7 L/kg
same,half-life,"[2]; 3 mg/kg, AF extract, low dose (3.0 mg/kg as AA I), analyte dose mg/kg: AA I 3.0, AA II 0.21, AA C 1.42, AA D 1.60, 7-OH AA I 2.33, n = 6, read-out: t 1/2z (converted)",2.45 h
same,AUC(0-inf),[2]; [7],179 ng·h/mL
same,Cmax,[2]; [7],58.6 ng/mL
same,Tmax,[2]; [7],0.78 h
same,CL/F,"[2]; 3 mg/kg, HAF extract, low dose (3.0 mg/kg as AA I), analyte dose mg/kg: AA I 3.0, AA II 0.26, AA C 1.53, AA D 1.51, 7-OH AA I 2.48, n = 6, read-out: CLz/F (converted)",158 mL/min/kg
same,Vd/F,"[2]; 3 mg/kg, HAF extract, low dose (3.0 mg/kg as AA I), analyte dose mg/kg: AA I 3.0, AA II 0.26, AA C 1.53, AA D 1.51, 7-OH AA I 2.48, n = 6, read-out: Vz/F",30.6 L/kg
same,half-life,"[2]; 3 mg/kg, HAF extract, low dose (3.0 mg/kg as AA I), analyte dose mg/kg: AA I 3.0, AA II 0.26, AA C 1.53, AA D 1.51, 7-OH AA I 2.48, n = 6, read-out: t 1/2z (converted)",2.05 h
same,AUC(0-inf),[2]; [8],402 ng·h/mL
same,Cmax,[2]; [8],126 ng/mL
same,Tmax,[2]; [8],0.56 h
same,CL/F,"[2]; 8 mg/kg, AF extract, mid dose (8.0 mg/kg as AA I), analyte dose mg/kg: AA I 8.0, AA II 0.56, AA C 3.78, AA D 4.26, 7-OH AA I 6.22, n = 6, read-out: CLz/F (converted)",359 mL/min/kg
same,Vd/F,"[2]; 8 mg/kg, AF extract, mid dose (8.0 mg/kg as AA I), analyte dose mg/kg: AA I 8.0, AA II 0.56, AA C 3.78, AA D 4.26, 7-OH AA I 6.22, n = 6, read-out: Vz/F",75.7 L/kg
same,half-life,"[2]; 8 mg/kg, AF extract, mid dose (8.0 mg/kg as AA I), analyte dose mg/kg: AA I 8.0, AA II 0.56, AA C 3.78, AA D 4.26, 7-OH AA I 6.22, n = 6, read-out: t 1/2z (converted)",2.43 h
same,AUC(0-inf),[2]; [9],323 ng·h/mL
same,Cmax,[2]; [9],89.2 ng/mL
same,Tmax,[2]; [9],0.75 h
same,CL/F,"[2]; 8 mg/kg, HAF extract, mid dose (8.0 mg/kg as AA I), analyte dose mg/kg: AA I 8.0, AA II 0.69, AA C 4.09, AA D 4.03, 7-OH AA I 6.62, n = 6, read-out: CLz/F (converted)",190 mL/min/kg
same,Vd/F,"[2]; 8 mg/kg, HAF extract, mid dose (8.0 mg/kg as AA I), analyte dose mg/kg: AA I 8.0, AA II 0.69, AA C 4.09, AA D 4.03, 7-OH AA I 6.62, n = 6, read-out: Vz/F",37.8 L/kg
same,half-life,"[2]; 8 mg/kg, HAF extract, mid dose (8.0 mg/kg as AA I), analyte dose mg/kg: AA I 8.0, AA II 0.69, AA C 4.09, AA D 4.03, 7-OH AA I 6.62, n = 6, read-out: t 1/2z (converted)",2.3 h
same,AUC(0-inf),[2]; [10],960 ng·h/mL
same,Cmax,[2]; [10],155 ng/mL
same,Tmax,[2]; [10],0.64 h
same,CL/F,"[2]; 15 mg/kg, AF extract, high dose (15.0 mg/kg as AA I), analyte dose mg/kg: AA I 15.0, AA II 1.05, AA C 7.09, AA D 8.00, 7-OH AA I 11.66, n = 6, read-out: CLz/F (converted)",560 mL/min/kg
same,Vd/F,"[2]; 15 mg/kg, AF extract, high dose (15.0 mg/kg as AA I), analyte dose mg/kg: AA I 15.0, AA II 1.05, AA C 7.09, AA D 8.00, 7-OH AA I 11.66, n = 6, read-out: Vz/F",153 L/kg
same,half-life,"[2]; 15 mg/kg, AF extract, high dose (15.0 mg/kg as AA I), analyte dose mg/kg: AA I 15.0, AA II 1.05, AA C 7.09, AA D 8.00, 7-OH AA I 11.66, n = 6, read-out: t 1/2z (converted)",2.89 h
same,AUC(0-inf),[2]; [11],590 ng·h/mL
same,Cmax,[2]; [11],148 ng/mL
same,Tmax,[2]; [11],0.63 h
same,CL/F,"[2]; 15 mg/kg, HAF extract, high dose (15.0 mg/kg as AA I), analyte dose mg/kg: AA I 15.0, AA II 1.29, AA C 7.66, AA D 7.56, 7-OH AA I 12.41, n = 6, read-out: CLz/F (converted)",206 mL/min/kg
same,Vd/F,"[2]; 15 mg/kg, HAF extract, high dose (15.0 mg/kg as AA I), analyte dose mg/kg: AA I 15.0, AA II 1.29, AA C 7.66, AA D 7.56, 7-OH AA I 12.41, n = 6, read-out: Vz/F",47.9 L/kg
same,half-life,"[2]; 15 mg/kg, HAF extract, high dose (15.0 mg/kg as AA I), analyte dose mg/kg: AA I 15.0, AA II 1.29, AA C 7.66, AA D 7.56, 7-OH AA I 12.41, n = 6, read-out: t 1/2z (converted)",2.4 h
